Key:
[1] = test system: C57BL/6J mice; test: Glucokinase activator in vivo screen protocol (blood glucose after oral dosing); details: oral gavage 50 mg/kg after two hour fast, blood glucose at 1, 2, 4 and 6 hours post dose, active = p≦0.05 decrease for two consecutive time points
Experimental: Glucokinase Activator in vivo Screen Protocol
C57BL/6J. mice are orally dosed via gavage with Glucokinase (GK) activator at 50 mg/kg body weight following a two hour fasting period. Blood glucose determinations are made five times during the six hour post-dose study period.
Mice (n=6) are weighed and fasted for a two hour period prior to oral treatment. GK activators are formulated at 6.76 mg/ml in Gelucire vehicle (Ethanol:Gelucire44/14:PEG400q.s. 4:66:30 v/w/v. Mice are dosed orally with 7.5 μl formulation per gram of body weight to equal a 50 mg/kg dose. Immediately prior to dosing, a pre dose (time zero) blood glucose reading is acquired by snipping off a small portion of the animals tail (˜1 mm) and collecting 15 μl blood into a heparinized capillary tube for analysis. Following GK activator administration, additional blood glucose readings are taken at 1, 2, 4 and 6 hours post dose from the same tail wound. Results are interpreted by comparing the mean blood glucose values of six vehicle treated mice with six GK activator treated mice over the six hour study duration.

melting point	Compound	glucokinase activator in vivo activity (decrease in blood glucose compared to vehicle) [1]
177 to 178 °C	CNC(=O)NC(=O)/C(=C/C(C)C)c1ccc(Cl)c(Cl)c1 [Example 26, (E)-1-[2-(3,4-Dichloro-phenyl)-4-methyl-pent-2-enoyl]-3-methyl-urea]	–
–	CS(=O)(=O)c1ccc(/C(=C\C2CCCCC2)C(=O)Nc2ccc(Br)cn2)cc1C(F)(F)F [Example 20, (E)-N-(5-Bromo-pyridin-2-yl)-3-cyclohexyl-2-(4-methanesulfonyl-3-trifluoromethyl-phenyl)-acrylamide]	excellent glucokinase activator in vivo activity
–	CS(=O)(=O)c1ccc(/C(=C\C2CCCCC2)C(=O)Nc2nccs2)cc1[N+](=O)[O-] [Example 14, (E)-3-Cyclohexyl-2-(4-methanesulfonyl-3-nitro-phenyl)-N-thiazol-2-yl-acrylamide]	excellent glucokinase activator in vivo activity
57 to 59 °C	O=C(Nc1nccs1)/C(=C/C1CCCC1)c1ccc(Cl)c(Cl)c1 [Example 8, (E)-3-Cyclopentyl-2-(3,4-dichloro-phenyl)-N-thiazol-2-yl-acrylamide]	–
202 to 205 °C	CS(=O)(=O)c1ccc(/C(=C\C2CCCC2)C(=O)Nc2ncc(Br)s2)cc1 [Example 7, (E)-N-(5-Bromo-thiazol-2-yl)-3-cyclopentyl-2-(4-methanesulfonyl-phenyl)-acrylamide]	–
173 to 176 °C	CS(=O)(=O)c1ccc(/C(=C\CC2CCCC2)C(=O)Nc2nccs2)cc1 [Example 21, (E)-4-Cyclopentyl-2-(4-methanesulfonyl-phenyl)-but-2-enoic acid thiazol-2-ylamide]	excellent glucokinase activator in vivo activity
–	CS(=O)(=O)c1ccc(/C(=C\C2CCCCC2)C(=O)Nc2nccs2)cc1 [Example 4, (E)-3-Cyclohexyl-2-(4-methanesulfonyl-phenyl)-N-thiazol-2-yl-acrylamide]	excellent glucokinase activator in vivo activity
172 to 173 °C	CS(=O)(=O)c1ccc(/C(=C\C2CCCC2)C(=O)Nc2nccs2)cc1 [Example 3, (E)-3-Cyclopentyl-2-(4-methanesulfonyl-phenyl)-N-thiazol-2-yl-acrylamide]	excellent glucokinase activator in vivo activity
–	CS(=O)(=O)c1ccc(/C(=C\C2CCCCC2)C(=O)Nc2nccs2)cc1C(F)(F)F [Example 12, (E)-3-Cyclohexyl-2-(4-methanesulfonyl-3-trifluoromethyl-phenyl)-N-thiazol-2-yl-acrylamide]	excellent glucokinase activator in vivo activity
163 to 165 °C	CS(=O)(=O)c1ccc(/C(=C\C2CCCCCC2)C(=O)Nc2nccs2)cc1 [Example 5, (E)-3-Cycloheptyl-2-(4-methanesulfonyl-phenyl)-N-thiazol-2-yl-acrylamide]	excellent glucokinase activator in vivo activity
–	CS(=O)(=O)c1ccc(/C(=C\C2CCCC2)C(=O)Nc2nccs2)cc1Cl [Example 9, (E)-2-(3-Chloro-4-methanesulfonyl-phenyl)-3-cyclopentyl-N-thiazol-2-yl-acrylamide]	excellent glucokinase activator in vivo activity
–	CS(=O)(=O)c1ccc(/C(=C\CC2CCCC2)C(=O)Nc2nccs2)cc1C(F)(F)F [Example 25, (E)-4-Cyclopentyl-2-(4-methanesulfonyl-3-trifluoromethyl-phenyl)-but-2-enoic acid thiazol-2-ylamide]	excellent glucokinase activator in vivo activity
–	CS(=O)(=O)c1ccc(/C(=C\C2CCCC2)C(=O)Nc2ccccn2)cc1Cl [Example 19, (E)-2-(3-Chloro-4-methanesulfonyl-phenyl)-3-cyclopentyl-N-pyridin-2-yl-acrylamide]	excellent glucokinase activator in vivo activity
199 to 202 °C	CNC(=O)NC(=O)/C(=C/C1CCCCC1)c1ccc(S(C)(=O)=O)c(C(F)(F)F)c1 [Example 27, (E)-1-[3-Cyclohexyl-2-(4-methanesulfonyl-3-trifluoromethyl-phenyl)-acryloyl]-3-methyl-urea]	–
85 to 90 °C	COC(=O)c1csc(NC(=O)/C(=C/CC2CCCC2)c2ccc(S(C)(=O)=O)cc2)n1 [Example 22, (E)-2-[4-Cyclopentyl-2-(4-methanesulfonyl-phenyl)-but-2-enoylamino]-thiazole-4-carboxylic acid methyl ester]	excellent glucokinase activator in vivo activity
159 to 163 °C	CS(=O)(=O)c1ccc(/C(=C\C2CCCCCC2)C(=O)Nc2ncc(Br)s2)cc1 [Example 16, (E)-N-(5-Bromo-thiazol-2-yl)-3-cycloheptyl-2-(4-methanesulfonyl-phenyl)-acrylamide]	excellent glucokinase activator in vivo activity
155 to 158 °C	CC/C=C(/C(=O)Nc1nccs1)c1ccc(S(C)(=O)=O)cc1 [Example 1, (E)-2-(4-Methanesulfonyl-phenyl)-pent-2-enoic acid thiazol-2-ylamide]	–
